Tests used:
neutrophil chemotaxis = conditions: chemically-synthesized peptide; reference 8; cited from earlier work
[1] = system: λ-carrageenan induced neutrophil mediated inflammation of the footpad; conditions: oxidised form; reference 8; cited from earlier work
[2] = system: λ-carrageenan induced neutrophil mediated inflammation of the footpad; test: λ-carrageenan-induced footpad inflammation (footpad swelling); type: in vivo, BALB/c mice; conditions: for Footpad Thickness (+/− SE): Un-Methionated Thymosin Experiment (A), oxidised peptide
Procedure: Experimental groups of 8-10 female BALB/c mice, 8-10 weeks of age, were housed in temperature controlled rooms and given food and water ad libitum. Observations and measurements were made by an investigator blinded to the experimental group. λ-Carrageenan injection. After measuring the baseline thickness of the hind footpads with a spring-loaded engineer's micrometer, mice were injected subcutaneously in both hind paws with 340 μg of λ-carrageenan in 40 μl. 6 h., 24 h., and 48 h. after the injection of λ-carrageenan, footpads were re-measured and swelling calculated by subtracting the baseline from the experimental measurements. For each mouse, increases in right and left footpad thickness were averaged. Thymosin peptides were injected as previously described [reference 8]: (i) intraperitoneally with 100 μl of 3.50×10^−5 M peptide solution, 30 minutes before footpad injection; (ii) intradermally into the footpad with 40 μl of 8.75×10^−5 M peptide solution and λ-carrageenan at time 0, and (iii) intraperitoneally with 100 μl of 3.50×10^−5 M peptide solution, 6 h. after footpad injection. For each group, the mean increase in footpad thickness was calculated, and compared to other groups using a one-tailed Student's t-test. The experiment was repeated four times. Statistics. Groups were compared for differences in the meaning using a one-tailed Student's t test; p<0.05 was considered statistically significant.

[3] = system: human umbilical vein endothelial cells (HUVEC); conditions: references 8, 9; cited from earlier work
[4] = system: DNFB-induced allergic contact dermatitis of ear skin; test: DNFB allergic contact dermatitis (ACD) ear swelling assay; type: in vivo, FVB mice; conditions: for DNFB Ear Thickness (+/− SE): Un-Methionated Thymosin Experiment; for ear thickness: unit not given
Procedure: Experimental groups of 8-10 female FVB mice, 8-10 weeks of age, were housed in temperature controlled rooms and given food and water ad libitum. Observations and measurements were made by an investigator blinded to the experimental group. Mice were sensitized on day 0 by epicutaneous application to razor-shaved abdominal skin of 25 μl of 0.5% DNFB in a mixture of acetone:olive oil (4:1). Before the challenge with DNFB, mice were injected (i) intraperitoneally with 100 μl of 3.50×10^−5 M thymosin peptide solution (30 minutes before DNFB) and (ii) intradermally with 40 μl of 8.75×10^−5 M peptide solution in both ears (1 min prior to DNFB challenge). On day 5, after measuring baseline ear thickness with an engineer's micrometer, mice were challenged by applying 10 μl of 0.2% DNFB in acetone:olive oil to each side of each ear. Ears were re-measured 6 h., 24 h., and 48 h. after challenge, and data expressed as the response above baseline (i.e., ear thickness 24 h. after challenge minus ear thickness immediately prior to challenge)±1 standard error of the mean (S.E.). For each mouse, increases in right and left ear thickness were averaged. The experiment was repeated twice. Statistics. Groups were compared for differences in the meaning using a one-tailed Student's t test; p<0.05 was considered statistically significant.

**Q.** Which results are given for “N-SDKPDMAEIEKFDKSKLKKTETQEKNPL-PSKETIEQEKQAGES-C (SEQ ID NO:1) [UTβ4]”?
**A.** neutrophil chemotaxis in vitro (neutrophil chemotaxis): inhibit neutrophil chemotaxis in vitro; inhibition of λ-carrageenan-induced edema/inflammation in the mouse footpad [1]: active; suppression of footpad inflammation relative to PBS ([2]; 6 h): 12%; suppression of footpad inflammation relative to PBS ([2]; 24 h): 30%; footpad thickness ([2]; 24 h, unit not given): 0.37±0.03; suppression of footpad inflammation relative to PBS ([2]; 48 h): 31%; Footpad Thickness (+/− SE) ([2]; forty-eight hours after λ-carrageenan): 0.41 ± 0.04 mm; Footpad Thickness (+/− SE) ([2]; six hours after λ-carrageenan, increase over baseline): 0.53 ± 0.03 mm; Footpad Thickness (+/− SE) ([2]; twenty-four hours after λ-carrageenan): 0.37 ± 0.03 mm; closure of scratch wounds in endothelial cell and keratinocyte monolayers in vitro [3]: promote the closure; suppression of ACD ear swelling response relative to PBS ([4]; 6 h): −4%; ear swelling response compared to mice receiving PBS or UTβ4 (FIG. 4A) ([4]; 6 h, 24 h and 72 h after challenge): no significant suppression; suppression of ACD ear swelling response relative to PBS ([4]; 24 h): 5%; suppression of ACD ear swelling response relative to PBS ([4]; 72 h): 2%; DNFB Ear Thickness (+/− SE) ([4]; forty-eight hours after challenge): 19.90 ± 1.02 .01 mm; DNFB Ear Thickness (+/− SE) ([4]; six hours after challenge): 9.85 ± 0.66 .01 mm; DNFB Ear Thickness (+/− SE) ([4]; twenty-four hours after challenge): 22.68 ± 1.33 .01 mm; ear thickness ([4]; seventy-two hours): 19.90±1.02; ear thickness ([4]; six hours): 9.85±0.66; ear thickness ([4]; twenty-four hours): 22.68±1.33
